For assay [1], the system named is DU-145 prostate cancer cells. In words: SU-ECM invasion assay, DU-145 prostate cancer cells. The class given is cell-based, human. As to conditions: DU-145 cells. The method, then: Adult Strongylocentrotus purpuratus sea urchins were obtained from Pacific BioMarine, and their embryos were cultured to the early pluteus stage in artificial sea water at 15° C. SU-ECM were prepared from them by treatment with nonionic detergent and strerilized by dilution in the appropriate media.
Cells were harvested by rinsing in Hanks' balanced salt solution, followed by brief treatment with 0.25% trypsin, 0.02% EDTA, and pelleting and resuspension in the appropriate medium with or without 5% FCS at a density of about 50,000 cells per ml. […]
Invasion assays were coded and scored blindly by microscopic examination under phase contrast at 200- and 400-fold magnification. Each cell contacting an SU-ECM was scored for its position relative to the exterior or interior surfaces. […] The minimum viability of the cells in each assay was always ascertained at the time of assay by determining the fraction of spread, adherent cells on the bottom of each well scored.
An invasion frequency is defined as the fraction of cells in contact with basement membranes which were located in their interiors at the time of assay. […] Invasion frequencies were determined multiple times for each cell type assayed. For each type of cell assayed the mean and standard deviation of the invasion frequencies were calculated. […]

The subject of the next assay is keratinocytes. The assay is described as follows: SU-ECM invasion by keratinocytes. Format: cell-based. Conditions: serum-free SU-ECM. The text has this: Since, during wound reepithelialization, keratinocytes migrate through the connective tissue of the provisional matrix to “wall off” portions of the wound, as well as through the adjacent stroma, it is not surprising that they are also stimulated to migrate through the matrix of SU-ECM invasion substrates by the PHSRN (SEQ ID NO: 1) sequence. […] Recruitment of fibroblasts or monocytes/macrophages whose paracrine, regulatory effects on a variety of neighboring cells are required for the early stages of wound healing is contemplated as a highly efficient and effective way to stimulate the cascade of regulatory interactions involved in wound healing because these cells will secrete the active factors or cytokines in the correct temporal sequences and spatial locations to ensure their optimal activities. Because it efficiently induces keratinocyte migration through the extracellular matrix in vitro, the PHSRN (SEQ ID NO: 1) peptide is also likely to stimulate wound reepithelialization directly. The use of the PHSRN (SEQ ID NO: 1) peptide or structurally related molecules according to the present invention is to stimulate the entry of cells such as fibroblasts and monocyte/macrophages into the provisional matrix of a wound, so that the entering cells themselves secrete the factors and cytokines active in inducing or potentiating wound healing. […]

The test system of assay [2] is normal, neonatal fibroblasts. The assay is described as follows: Invasion of gelatin- and antibody-depleted Matrigel by fibroblasts. The class given is cell-based. As to conditions: gelatin plus antibody panned Matrigel. The protocol:
Anti-fibronectin antibody-coated wells: Wells of a 24-well plate were coated with an anti-fibronectin antibody. A mouse monoclonal antibody to human fibronectin was obtained from Oncogene Science (Catalog #CP13). Each well was incubated with 1 ml of antibody at a concentration of 30 μl/ml for 2 hours at room temperature. Each well was then incubated with a solution of 3% BSA in PBS for 2 hours at room temperature. Following the two incubation periods, the wells were thoroughly washed with PBS and stored at −20° C. until use.
Depleting Matrigel of Fibronectin: Matrigel was panned over eight gelatin-coated wells (as described above in Example 2) to remove most of the fibronectin and its fragments. Thereafter, the Matrigel was placed in the antibody-coated wells to remove any remaining fragments of fibronectin which contain the cell-binding domain but not the gelatin-binding domain. The Matrigel was incubated in an ice bucket on an orbital shaker at 4° C. for 2 hours. Once the Matrigel was depleted, it was collected in Eppendorf tubes. The firbonectin-depleted Matrigel was plated on a 48-well plate (150 μl/well), sterilized under a UV light for 10 minutes and incubated at 37° C. overnight. The Matrigel formed a gel and the following day, cells were added to the wells. […]

Turning to Pro-His-Ser-Arg-Asn (PHSRN), the “induction of invasion of SU-ECM” value in assay [1] is “induced to invade the SU-ECM substrate”. For the same substance, the keratinocyte invasion result in the assay on keratinocytes was “stimulate keratinocyte invasion of serum-free SU-ECM”. For the same substance, the “fibroblast invasiveness on depleted Matrigel” value in assay [2] is “invasiveness of the fibroblasts could be induced”.

For the origin of these results see US20060078535A1, “Anticancer compounds and methods” (The Regents of the University of Michigan, priority 2004, published 2006).
